According to patent US20260199297A1, “FERROPTOSIS INDUCERS TO TREAT CANCER” (The University of Toledo, priority 2022, published 2026):
Like-named read-outs stand apart in the source and are kept apart here.

Columns and labels:
WI38 cells = experiment: Cytotoxicity on normal cell line WI38; assay type: cell-based, human; settings: Homo sapiens, WI-38; Table 2; lung tissue fibroblast; read-out: Half maximal inhibitory concentration (IC50), Normal Cell Line WI38
Protocol: (§1) To determine cytotoxicity at a therapeutically more relevant concentration, cells were treated at a single concentration of […] (FIG. 12).
(§2) Cell lines were cultured in a humidified atmosphere containing 10% CO2 in Dulbecco's modified Eagle's medium (Mediatech, Inc) supplemented with 10% fetal bovine serum (Atlanta Biologicals). Cell types used MEFs, HT1080 (human fibrosarcoma cells), NARF2 (osteosarcoma), WI-38 (human embryonic lung fibroblast), MDA MB 231 (breast cancer), HCT-116 (human colon), and NCI-H522 (Non-Small Cell Lung Cancer) cell lines. To determine viability throughout these examples, 5,000 cells were plated per well of a 96-well plate and drugs were added 1 day later. Cells were stained 1 to 3 days later with a saturated solution of methylene blue in 50% ethanol. Plates were rinsed and retained dye was quantified by spectrophotometry. Absorbance was normalized to DMSO and given as 1 or 100% for cell viability. Results are representative of at least two independent experiments. Statistical significance was assessed using the Student's t test. All commercially available chemicals were obtained from Cayman Chemicals unless otherwise noted.

NCI-H522 RV-GFP cells = experiment: Cytotoxicity (methylene blue cell viability), NCI-H522 RV-GFP control clone; assay type: cell-based, human; settings: Homo sapiens, NCI-H522; Table 1; control clone with RV-GFP tag; read-out: Half maximal inhibitory concentration (IC50), NCI-H522 Rv-GFP
Protocol: (§3) Having synthesized the CETZOLE analogs, their cytotoxic activity was evaluated. […] NCI-H522 RV-GFP is the corresponding control with RV-GFP tag, but without SLC7A11 overexpression. […] The cytotoxicity screening was conducted as described previously.
as §2

HT-1080 cells = experiment: Cytotoxicity (methylene blue cell viability), HT-1080; assay type: cell-based, human; settings: Homo sapiens
Protocol: as §3, §2

[1] = system: NCI-H522 GFP-SLC7A11 #8 cells; experiment: Cytotoxicity (methylene blue cell viability), NCI-H522 clone overexpressing GFP-SLC7A11; assay type: cell-based, human; settings: Homo sapiens; Table 1; NCI-H522 clone overexpressing GFP-tagged SLC7A11; read-out: Half maximal inhibitory concentration (IC50), NCI-H522 GFP-SCL7A11 #8
Protocol: as §3, §2

[2] = system: NCI-H522 and HT-1080 cancer cell lines, WI38 and MEFs normal cell lines; experiment: Selective cytotoxicity assay at a single concentration; assay type: cell-based; parameters: dose or concentration left out as unconfirmed; settings: NCI-H522, HT-1080, WI38, MEFs
Protocol: Overall, WI38 cells were the most tolerant to the treatment, whereas MEF cells were partially tolerant and relatively less sensitive than both NCI-H522 and HT-1080 cells. To determine cytotoxicity at a therapeutically more relevant concentration, cells were treated at a single concentration of […] (FIG. 12).
as §2, with “noted. Compound CETZOLE 1 and the analogs were synthesized as highlighted.” for “noted.”

MDA-MB-231 cells = experiment: Cytotoxicity (methylene blue cell viability), MDA-MB-231; assay type: cell-based; settings: Homo sapiens
Protocol: as §3, §2

[3] = system: MEFs (Mouse Embryonic Fibroblasts); experiment: Cytotoxicity on normal cell line MEFs; assay type: cell-based; settings: Fibroblast; Table 2; Mouse Embryonic Fibroblasts; read-out: Half maximal inhibitory concentration (IC50), Normal Cell Line Mefs
Protocol: as §1, §2

NARF2 cells = experiment: Cytotoxicity (methylene blue cell viability), NARF2; assay type: cell-based, human; settings: Homo sapiens; Table 1; NARF2 osteosarcoma cells; read-out: Half maximal inhibitory concentration (IC50), NARF2
Protocol: as §3, §2

NCI-H522 cells = experiment: Cytotoxicity (methylene blue cell viability), NCI-H522; assay type: cell-based, human; settings: for IC50: Homo sapiens
Protocol: as §3, §2

[4] = system: NCI-H522, NCI-H522 GFP-SLC7A11 #8, NCI-H522 RV-GFP, HT-1080, NARF2 and MDA-MB 231 cell lines; experiment: Cytotoxicity screening across the tested cell lines; assay type: cell-based; settings: summary over all tested cell lines; read-out: IC50 values against the tested cell lines
Protocol: as §3, §2

[5] = system: protein bands between 25 kD to 38 kD; experiment: Competitive binding assay against probe PPd (in-gel fluorescence); settings: 20 μM concentration; bands 25 kD to 38 kD
[6] = HT-1080, Table 2, read-out: Half maximal inhibitory concentration (IC50), Cancer Cell Line HT1080
[7] = Table 1, HT-1080 fibrosarcoma cell line, read-out: Half maximal inhibitory concentration (IC50), HT-1080
[8] = Table 1, MDA-MB-231 breast cancer cell line, read-out: Half maximal inhibitory concentration (IC50), MDA-MB-231
[9] = NCI-H522, Table 2, read-out: Half maximal inhibitory concentration (IC50), Cancer Cell Line NCI-H522
[10] = Table 1, NCI-H522 cancer cell line, read-out: Half maximal inhibitory concentration (IC50), NCI-H522
[11] = HT-1080, Table 3, probes and negative controls, read-out: IC50, HT-1080
[12] = MDA-MB-231, Table 3, probes and negative controls, read-out: IC50, MDA-MB-231
[13] = NCI-H522, Table 3, probes and negative controls, read-out: IC50, NCI-H522

Row | Compound | IC50 (NCI-H522 RV-GFP cells) | IC50 (HT-1080 cells; [7]) | IC50 [1] | IC50 (MDA-MB-231 cells; [8]) | IC50 (NARF2 cells) | IC50 (NCI-H522 cells; [10]) | IC50 (HT-1080 cells; [11]) | IC50 (MDA-MB-231 cells; [12]) | IC50 (NCI-H522 cells; [13]) | also measured
1 | C#Cc1nc(C2=C(C)C(OC(=O)CCC)/C(=N/OC(=O)CCC)C2)cs1 (stereo not drawn) [compound 20c, (E)-5-((Butyryloxy)imino)-3-(2-ethynylthiazol-4-yl)-2-methylcyclopent-2-en-1-yl butyrate] | 0.28 ± 0.13 µM | 0.19 ± 0.09 µM | 1930 ± 800 nM | 0.83 ± 0.15 µM | 5.95 ± 1.8 µM | 0.13 ± 0.09 µM | – | – | – | IC50 (WI38 cells): 1190 ± 300 nM; IC50 (HT-1080 cells; [6]): 0.19 ± 0.09 µM; cell death at a single concentration [2]: killed only the cancer cell lines NCI-H522 and HT-1080; IC50 [3]: 790 ± 40 nM; IC50 (NCI-H522 cells; [9]): 0.13 ± 0.09 µM
2 | C#Cc1nc(C2=C(C)C(=O)/C(=N/O)C2)cs1 [compound 14, (E)-3-(2-Ethynylthiazol-4-yl)-5-(hydroxyimino)-2-methylcyclopent-2-en-1-one] | > 20 µM | 5.29 ± 2.6 µM | > 20000 nM | 8.05 ± 0.63 µM | > 20 µM | > 20 µM | – | – | – | IC50 [4]: > 20 µM
3 | CC1=C(c2csc(Br)n2)CCC1NC(=O)CCCC[C@@H]1SC[C@@H]2NC(=O)N[C@@H]21 (stereo partly drawn) [NPb, N-(3-(2-Bromothiazol-4-yl)-2-methylcyclopent-2-en-1-yl)-5-((3aS,4S,6aR)-2-oxohexahydro-1H-thieno[3,4-d]imidazol-4-yl)pentanamide] | – | – | – | – | – | – | > 20 µM | > 20 µM | > 20 µM | –
4 | C#CCCC(=O)Nc1ccc(C(=O)c2ccc(NC(=O)CO/N=C3\CC(c4csc(Br)n4)=C(C)C3O)cc2)cc1 (stereo not drawn) [NPe, (E)-N-(4-(4-(2-(((4-(2-Bromothiazol-4-yl)-2-hydroxy-3-methylcyclopent-3-en-1-ylidene)amino)oxy)acetamido)benzoyl)phenyl)pent-4-ynamide] | – | – | – | – | – | – | > 20 µM | > 20 µM | > 20 µM | –
5 | C#Cc1nc(C2=C(C)C(=O)/C(=N/OC(C)=O)C2)cs1 [compound 18] | > 20 µM | > 20 µM | > 20000 nM | 18.5 ± 1.7 µM | > 20 µM | 11 ± 1.53 µM | – | – | – | IC50 [4]: > 20 µM
6 | Cc1onc(C(=O)N2CCN(C(c3ccc(Cl)cc3)c3ccc(Cl)cc3)CC2)c1[N+](=O)[O-] [ML210] | – | – | – | – | – | – | – | – | – | competition of PPd-labelled protein bands by known ferroptosis inducers [5]: compete out the same protein bands
7 | C#Cc1nc(C2=C(C)C(O)/C(=N\OCc3ccccc3)C2)cs1 (stereo not drawn) [compound 21, (Z)-4-(2-Ethynylthiazol-4-yl)-2-hydroxy-3-methylcyclopent-3-en-1-one O-benzyl oxime] | 3.02 ± 1.7 µM | 0.93 ± 0.12 µM | 2170 ± 1500 nM | 13.4 ± 5.3 µM | > 20 µM | 1.18 ± 0.8 µM | – | – | – | –
8 | O=C(O)c1cc(/N=N/c2ccc(S(=O)(=O)Nc3ccccn3)cc2)ccc1O [sulfasalazine] | – | – | – | – | – | – | – | – | – | competition of PPd-labelled protein bands by known ferroptosis inducers [5]: did not show any significant competition
9 | C#Cc1nc(C2=C(C)C(O)/C(=N/O)C2)cs1 (stereo not drawn) [compound 19, (E)-4-(2-Ethynylthiazol-4-yl)-2-hydroxy-3-methylcyclopent-3-en-1-one oxime] | 5.55 ± 0.01 µM | 5.77 ± 0.67 µM | > 20000 nM | 6.57 ± 0.5 µM | > 20 µM | 4.68 ± 1.03 µM | – | – | – | –
10 | C#Cc1nc(C2=C(C)C(OC(=O)CCCCCCC)/C(=N/OC(=O)CCCCCCC)C2)cs1 (stereo not drawn) [compound 20e, (E)-3-(2-Ethynylthiazol-4-yl)-2-methyl-5-((octanoyloxy)imino)cyclopent-2-en-1-yl octanoate] | > 20 µM | > 20 µM | > 20000 nM | 19.1 ± 2.8 µM | > 20 µM | > 20 µM | – | – | – | IC50 [4]: > 20 µM
11 | CCN(CC)c1ccc2cc(C(=O)NC3CCC(c4csc(Br)n4)=C3C)c(=O)oc2c1 (stereo not drawn) [NPa, N-(3-(2-Bromothiazol-4-yl)-2-methylcyclopent-2-en-1-yl)-7-(diethylamino)-2-oxo-2H-chromene-3-carboxamide] | – | – | – | – | – | – | > 20 µM | > 20 µM | > 20 µM | –
12 | C#Cc1nc(C2=C(C)C(OC(=O)CC)/C(=N/OC(=O)CC)C2)cs1 (stereo not drawn) [compound 20b, (E)-3-(2-Ethynylthiazol-4-yl)-2-methyl-5-((propionyloxy)imino)cyclopent-2-en-1-yl propionate] | 0.59 ± 0.22 µM | 0.15 ± 0.02 µM | 2060 ± 540 nM | 0.18 ± 0.03 µM | 13.4 ± 3.3 µM | 0.12 ± 0.06 µM | – | – | – | IC50 (WI38 cells): 2520 ± 920 nM; IC50 (HT-1080 cells; [6]): 0.15 ± 0.02 µM; cell death at a single concentration [2]: killed only the cancer cell lines NCI-H522 and HT-1080; IC50 [3]: 280 ± 40 nM; IC50 (NCI-H522 cells; [9]): 0.12 ± 0.06 µM
13 | C#CCO/N=C1\CC(c2csc(Br)n2)=C(C)C1O (stereo not drawn) [NPd, 4-(2-Bromothiazol-4-yl)-2-hydroxy-3-methylcyclopent-3-en-1-one O-prop-2-yn-1-yl oxime] | – | – | – | – | – | – | > 20 µM | > 20 µM | > 20 µM | –
14 | C#Cc1nc(C2=C(C)C(NC(=O)c3cc4ccc(N(CC)CC)cc4oc3=O)CC2)cs1 (stereo not drawn) [PPa, 7-(Diethylamino)-N-(3-(2-ethynylthiazol-4-yl)-2-methylcyclopent-2-en-1-yl)-2-oxo-2H-chromene-3-carboxamide] | – | – | – | – | – | – | 4.58 ± 0.87 µM | 1.2 ± 1.03 µM | 4.56 ± 1.43 µM | IC50 (NCI-H522 cells; cell line not given, value matches NCI-H522 of Table 3, read-out: IC50 (moderate cytotoxicity of PPa)): 4.56 ± 1.43 µM
15 | C#Cc1nc(C2=C(C)C(NC(=O)CCCC[C@@H]3SC[C@@H]4NC(=O)N[C@@H]43)CC2)cs1 (stereo partly drawn) [PPb, N-(3-(2-Ethynylthiazol-4-yl)-2-methylcyclopent-2-en-1-yl)-5-((3aS,4S,6aR)-2-oxohexahydro-1H-thieno[3,4-d]imidazol-4-yl)pentanamide] | – | – | – | – | – | – | 7.91 ± 1.9 µM | > 20 µM | 17.9 ± 3.98 µM | IC50 (NCI-H522 cells; NCI-H522, unit inferred, read-out: IC50 on NCI-H522 cell line): 17.9 ± 3.98 µM; activity relative to CETZOLE 1 (NCI-H522 cells; NCI-H522 cell line): five-fold less active
16 | CC1=C(c2csc(Br)n2)CCC1O (stereo not drawn) [compound 13, 3-(2-Bromothiazol-4-yl)-2-methylcyclopent-2-en-1-ol] | – | – | – | – | – | – | > 20 µM | > 20 µM | > 20 µM | –
